The values that follow come from patent US20250312352A1, “GLP-1R MODULATING COMPOUNDS” (Gilead Sciences, Inc., priority 2021, published 2025).

pEC50: −log10 of the molar value.

In this assay the target is T1, GLP-1R (Homo sapiens, UniProt P43220).
T1 construct: host or cells: CHO cells
T1 sequence (P43220 24-463): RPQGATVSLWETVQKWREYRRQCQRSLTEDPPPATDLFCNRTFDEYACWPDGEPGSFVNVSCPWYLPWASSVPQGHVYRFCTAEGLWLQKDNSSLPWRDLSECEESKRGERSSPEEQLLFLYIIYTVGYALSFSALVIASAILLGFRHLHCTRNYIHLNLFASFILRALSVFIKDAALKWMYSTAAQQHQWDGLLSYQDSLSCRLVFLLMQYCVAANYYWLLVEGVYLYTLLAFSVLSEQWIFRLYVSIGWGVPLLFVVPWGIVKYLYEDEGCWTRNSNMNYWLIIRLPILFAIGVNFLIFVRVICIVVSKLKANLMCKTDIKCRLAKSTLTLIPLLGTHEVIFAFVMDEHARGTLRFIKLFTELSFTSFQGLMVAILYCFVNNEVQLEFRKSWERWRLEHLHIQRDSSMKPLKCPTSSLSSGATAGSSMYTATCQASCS
Put plainly: GLP-1R activation cAMP assay (Assay 1 or Assay 2). The assay is classed as cell-based. As to conditions: cAMP increase in CHO cells stably expressing GLP-1R; compounds run on one of the two cAMP assays. Summed up: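 CHO cells stably expressing human GLP-1R were incubated 1 h in HBSS/20 mM HEPES/0.1% BSA, then exposed to 10-point agonist dilutions for 30 min at 37 °C. cAMP increase was measured with an HTRF Gs dynamic kit; EC50 from sigmoidal fit of response versus log concentration.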
`Cc1nnc(COc2cccc(-c3cc(F)c(Cc4nc5c(F)cc(C(=O)O)cc5n4[C@@H]4COCC4(C)C)cc3F)n2)s1` [Example 283, (S)-2-(2,5-difluoro-4-(6-((5-methyl-1,3,4-thiadiazol-2-yl)methoxy)pyridin-2-yl)benzyl)-1-(4,4-dimethyltetrahydrofuran-3-yl)-4-fluoro-1H-benzo[d]imidazole-6-carboxylic acid] had a pEC50 of 9.96.

For the compound `Cn1nc(COc2cccc(-c3cc(F)c(Cc4nc5ccc(C(=O)O)cc5n4C[C@@H]4CCO4)cc3F)n2)cc1-c1cnn(C(F)F)c1` [Example 110, (S)-2-(4-(6-((1′-(difluoromethyl)-2-methyl-1′H,2H-[3,4′-bipyrazol]-5-yl)methoxy)pyridin-2-yl)-2,5-difluorobenzyl)-1-(oxetan-2-ylmethyl)-1H-benzo[d]imidazole-6-carboxylic acid], the pEC50 is 9.02. Against the preceding compound, the pEC50 is 0.94 log units lower.

Compound `O=C(O)c1ccc2nc(Cc3cc(F)c(-c4cccc(OCc5ncc(C#Cc6cncs6)cc5F)n4)cc3F)n(C[C@@H]3CCO3)c2c1` [Example 303, (S)-2-(2,5-difluoro-4-(6-((3-fluoro-5-(thiazol-5-ylethynyl)pyridin-2-yl)methoxy)pyridin-2-yl)benzyl)-1-(oxetan-2-ylmethyl)-1H-benzo[d]imidazole-6-carboxylic acid] had a pEC50 of 9.60.

As to `Cc1cc(Cc2nc3ccc(C(=O)O)cc3n2[C@@H]2COCC2(C)C)c(Cl)cc1-c1ccc(F)c(OCc2ncc(C(F)(F)F)s2)n1` [Example 371, (S)-2-(2-chloro-4-(5-fluoro-6-((5-(trifluoromethyl)thiazol-2-yl)methoxy)pyridin-2-yl)-5-methylbenzyl)-1-(4,4-dimethyltetrahydrofuran-3-yl)-1H-benzo[d]imidazole-6-carboxylic acid], the pEC50 is 8.75.

`Cc1ncc(C#Cc2ccc(COc3cccc(-c4cc(F)c(Cc5nc6ccc(C(=O)O)cc6n5C[C@@H]5CCO5)cc4F)n3)c(F)c2)o1` [Example 136, (S)-2-(2,5-difluoro-4-(6-((2-fluoro-4-((2-methyloxazol-5-yl)ethynyl)benzyl)oxy)pyridin-2-yl)benzyl)-1-(oxetan-2-ylmethyl)-1H-benzo[d]imidazole-6-carboxylic acid] gave a pEC50 of 9.60. Against the preceding compound, the pEC50 is 0.85 log units higher.

For the compound `NC(=O)c1ccc(COc2nccc(-c3cc(F)c(Cc4nc5ccc(C(=O)O)cc5n4C[C@@H]4CCO4)cc3F)n2)cn1` [Example 222, (S)-2-(4-(2-((6-carbamoylpyridin-3-yl)methoxy)pyrimidin-4-yl)-2,5-difluorobenzyl)-1-(oxetan-2-ylmethyl)-1H-benzo[d]imidazole-6-carboxylic acid], the pEC50 is 8.44.

In the case of `CC(=O)N1CC(Oc2nnc(COc3cccc(-c4cc(F)c(Cc5nc6ccc(C(=O)O)cc6n5C[C@@H]5CCO5)cc4F)n3)s2)C1` [Example 348, (S)-2-(4-(6-((5-((1-acetylazetidin-3-yl)oxy)-1,3,4-thiadiazol-2-yl)methoxy)pyridin-2-yl)-2,5-difluorobenzyl)-1-(oxetan-2-ylmethyl)-1H-benzo[d]imidazole-6-carboxylic acid], the pEC50 is 8.73.

Turning to `Cn1cncc1C#Cc1cnc(COc2cccc(-c3cc(F)c(Cc4nc5ccc(C(=O)O)cc5n4C[C@@H]4CCO4)cc3F)n2)c(F)c1` [Example 293, (S)-2-(2,5-difluoro-4-(6-((3-fluoro-5-((1-methyl-1H-imidazol-5-yl)ethynyl)pyridin-2-yl)methoxy)pyridin-2-yl)benzyl)-1-(oxetan-2-ylmethyl)-1H-benzo[d]imidazole-6-carboxylic acid], the pEC50 is 9.74.

`COCCn1c(Cc2cc(F)c(-c3cccc(OCc4ccc(-c5cnn(Cc6cccnc6)c5)cc4F)n3)cc2F)nc2ccc(C(=O)O)cc21` [Example 237, 2-[[2,5-difluoro-4-[6-[[2-fluoro-4-[1-(3-pyridylmethyl)pyrazol-4-yl]phenyl]methoxy]-2-pyridyl]phenyl]methyl]-3-(2-methoxyethyl)benzimidazole-5-carboxylic acid] showed a pEC50 of 8.43.

For the compound `O=C(O)c1cc(F)c2nc(Cc3cc(F)c(-c4cccc(OCc5ncc(C(F)F)s5)n4)cc3F)n(C[C@@H]3CCO3)c2c1` [Example 324, (S)-2-(4-(6-((5-(difluoromethyl)thiazol-2-yl)methoxy)pyridin-2-yl)-2,5-difluorobenzyl)-4-fluoro-1-(oxetan-2-ylmethyl)-1H-benzo[d]imidazole-6-carboxylic acid], the pEC50 was 9.91.

On to `Cn1cc(-c2cnc(COc3cccc(-c4cc(F)c(Cc5nc6ccc(C(=O)O)cc6n5C[C@@H]5CCO5)cc4F)n3)s2)nn1` [Example 89, (S)-2-(2,5-difluoro-4-(6-((5-(1-methyl-1H-1,2,3-triazol-4-yl)thiazol-2-yl)methoxy)pyridin-2-yl)benzyl)-1-(oxetan-2-ylmethyl)-1H-benzo[d]imidazole-6-carboxylic acid], for which the pEC50 is 8.73.

On to `O=C(O)c1ccc2nc(Cc3cc(F)c(-c4cccc(OCc5ncc(-c6cnco6)s5)n4)cc3F)n(C[C@@H]3CCO3)c2c1` [Example 93, (S)-2-(2,5-difluoro-4-(6-((5-(oxazol-5-yl)thiazol-2-yl)methoxy)pyridin-2-yl)benzyl)-1-(oxetan-2-ylmethyl)-1H-benzo[d]imidazole-6-carboxylic acid], for which the pEC50 is 10.22.

For the compound `Cn1cc(-c2cc(COc3cccc(-c4cc(F)c(Cc5nc6ccc(C(=O)O)cc6n5C[C@@H]5CCO5)cc4F)n3)nn2C)cn1` [Example 109, (S)-2-(4-(6-((1′,2-dimethyl-1′H,2H-[3,4′-bipyrazol]-5-yl)methoxy)pyridin-2-yl)-2,5-difluorobenzyl)-1-(oxetan-2-ylmethyl)-1H-benzo[d]imidazole-6-carboxylic acid], the pEC50 was 9.21.

`Cn1nc(COc2cccc(-c3cc(F)c(Cc4nc5ccc(C(=O)O)cc5n4C[C@@H]4CCO4)cc3F)n2)cc1C(F)F` [Example 40, (S)-2-(4-(6-((5-(difluoromethyl)-1-methyl-1H-pyrazol-3-yl)methoxy)pyridin-2-yl)-2,5-difluorobenzyl)-1-(oxetan-2-ylmethyl)-1H-benzo[d]imidazole-6-carboxylic acid] showed a pEC50 of 9.08.

As for `NC(=O)c1sc(COc2cccc(-c3cc(F)c(Cc4nc5ccc(C(=O)O)cc5n4C[C@@H]4CCO4)cc3F)n2)cc1F` [Example 204, 2-[[4-[6-[(5-carbamoyl-4-fluoro-2-thienyl)methoxy]-2-pyridyl]-2,5-difluoro-phenyl]methyl]-3-[[(2S)-oxetan-2-yl]methyl]benzimidazole-5-carboxylic acid], the pEC50 was 8.25.

In turn, `CC(F)(F)c1cnc(COc2nc(-c3cc(F)c(Cc4nc5ccc(C(=O)O)cc5n4[C@@H]4COCC4(C)C)cc3F)ccc2F)s1` [Example 340, (S)-2-(4-(6-((5-(1,1-difluoroethyl)thiazol-2-yl)methoxy)-5-fluoropyridin-2-yl)-2,5-difluorobenzyl)-1-(4,4-dimethyltetrahydrofuran-3-yl)-1H-benzo[d]imidazole-6-carboxylic acid] gave a pEC50 of 10.24.

Compound `CC1(C#Cc2nnc(COc3cccc(-c4cc(F)c(Cc5nc6ccc(C(=O)O)cc6n5C[C@@H]5CCO5)cc4F)n3)s2)CC1` [Example 321, (S)-2-(2,5-difluoro-4-(6-((5-((1-methylcyclopropyl)ethynyl)-1,3,4-thiadiazol-2-yl)methoxy)pyridin-2-yl)benzyl)-1-(oxetan-2-ylmethyl)-1H-benzo[d]imidazole-6-carboxylic acid] gave a pEC50 of 9.61.

The compound `NC(=O)c1ncc(COc2cccc(-c3cc(F)c(Cc4nc5ccc(C(=O)O)cc5n4C[C@@H]4CCO4)cc3F)n2)s1` [Example 165, (S)-2-(4-(6-((2-carbamoylthiazol-5-yl)methoxy)pyridin-2-yl)-2,5-difluorobenzyl)-1-(oxetan-2-ylmethyl)-1H-benzo[d]imidazole-6-carboxylic acid] showed a pEC50 of 8.70. This pEC50 lies 0.91 log units lower than the previous one.

The compound `COCCn1c(Cc2cc(F)c(-c3cccc(OCc4ccc(C#CC(C)(C)S(C)(=O)=O)nc4)n3)cc2F)nc2ccc(C(=O)O)cc21` [Example 221, 2-[[2,5-difluoro-4-[6-[[6-(3-methyl-3-methylsulfonyl-but-1-ynyl)-3-pyridyl]methoxy]-2-pyridyl]phenyl]methyl]-3-(2-methoxyethyl)benzimidazole-5-carboxylic acid] showed a pEC50 of 5.97.

Compound `CC1(C)COC[C@H]1n1c(Cc2cc(F)c(-c3cccc(OCc4nnc(C(F)(F)F)s4)n3)cc2F)nc2ccc(C(=O)O)cc21` [Example 433, (S)-2-(2,5-difluoro-4-(6-((5-(trifluoromethyl)-1,3,4-thiadiazol-2-yl)methoxy)pyridin-2-yl)benzyl)-1-(4,4-dimethyltetrahydrofuran-3-yl)-1H-benzo[d]imidazole-6-carboxylic acid] showed a pEC50 of 9.38.

Regarding `O=C(O)c1ccc2nc(Cc3cc(F)c(-c4cccc(OCc5nc6ccccc6s5)n4)cc3F)n(C[C@@H]3CCO3)c2c1` [Example 34, (S)-2-(4-(6-(benzo[d]thiazol-2-ylmethoxy)pyridin-2-yl)-2,5-difluorobenzyl)-1-(oxetan-2-ylmethyl)-1H-benzo[d]imidazole-6-carboxylic acid], the pEC50 was 9.70.

The compound `CNC(=O)c1ccc(COc2cccc(-c3cc(F)c(Cc4nc5ccc(C(=O)O)cc5n4C[C@@H]4CCO4)cc3F)n2)cn1` [Example 43, (S)-2-(2,5-difluoro-4-(6-((6-(methylcarbamoyl)pyridin-3-yl)methoxy)pyridin-2-yl)benzyl)-1-(oxetan-2-ylmethyl)-1H-benzo[d]imidazole-6-carboxylic acid] gave a pEC50 of 9.52.

For the compound `CNC(=O)c1cc(Cl)c(COc2cccc(-c3cc(F)c(Cc4nc5c(F)cc(C(=O)O)cc5n4C[C@@H]4CCO4)cc3F)n2)cn1` [Example 198, (S)-2-(4-(6-((4-chloro-6-(methylcarbamoyl)pyridin-3-yl)methoxy)pyridin-2-yl)-2,5-difluorobenzyl)-4-fluoro-1-(oxetan-2-ylmethyl)-1H-benzo[d]imidazole-6-carboxylic acid], the pEC50 was 10.40.

As usually defined, the pEC50 is the EC50 on a negative log10 scale, so that one unit is a factor of ten. Higher therefore signals a low EC50.
